Source: patent US20250161312A1, “A METHOD FOR THE TREATMENT OF CHEMOTHERAPEUTIC DRUG-INDUCED NEPHROTOXICITY” (INSTITUT NATIONAL DE LA SANTÉ ET DE LA RECHERCHE MÉDICALE, priority 2022, published 2025)

Columns and labels:
[1] = system: C57BL6/J mice; experiment: Sub-chronic cisplatin-induced kidney injury model; assay type: in vivo
Experimental: FIG. 1. Schematic representation of the different animal procedures. (A) Acute cisplatin-induced kidney injury. […] (B) Sub-chronic cisplatin-induced kidney injury. […] (C) KW-6002 administration schedule in the acute model. […] (D) KW-6002 administration schedule in the sub-chronic model.
Animal experiments were adapted from 63-64. Animal procedures were performed in 8 to 10 weeks old male C57B16/J mice (Janvier Labs). Mice were fed a laboratory standard diet with water and food ad libitum and were kept under constant environmental conditions with a 12-hour light-dark cycle. Istradefylline (KW-6002; Tocris) was dissolved in a carrier solution consisting in 15% DMSO, 15% cremophor (Sigma), 70% saline solution (vehicle). Cisplatin (Accord Healthcare) was dissolved in saline solution. […] Three days after this single injection, animals were sacrificed by cervical dislocation (FIG. 1A).
Prior sacrifice by cervical dislocation, retro-orbital blood samples were collected in heparinized tubes and centrifuged for 10 min at 2000 rpm at room temperature. Renal function was assessed by Blood urea nitrogen (BUN) measurement using a AU480 Chemistry Analyzer (Beckman Coulter). At the time of sacrifice, kidneys or LLC1 tumors were harvested and stored in either “RNA later” solution (Thermo Fisher), 4% neutral buffered formalin or snap-frozen in liquid nitrogen.
Formalin-fixed and paraffin-embedded sections (3 μm thick) were stained with Hematoxylin and Eosin (Sigma Aldrich) or Periodic Acid-Schiff (Sigma-Aldrich). Slices were scored by a nephropathologist in a blinded manner. A kidney injury score grading scale from 0 to 5 was used to assess the severity of the injury as follow: 0=no lesions, 1=minimal injury characterized by occurrence of necrosis and debris; 2=mild injury with single cell necrosis, pyknotic cells, and apoptosis; 3=moderate injury characterized by tubular distension, vacuolation, and some cellular debris, 4=severe injury with occasional hyaline casts observed, patchy epithelial necrosis in all segments, loss of epithelial lining; and 5=very severe injury characterized by extensive tubular epithelial necrosis in all segments, loss of epithelial layer from many tubules widespread intraluminal cellular debris, and frequent hyaline casts particularly prominent in the medullary region (67).
Total RNA from kidney samples was extracted with phenol/chloroform and subsequently precipitated in isopropanol as described previously (71). Total RNA from cultured renal cells was extracted using RNeasy Mini kit (Qiagen) following manufacturer's recommendations.
Reverse transcription was performed on 1 μg of RNA using high-capacity cDNA reverse transcription kit (Thermo Fisher), according the manufacturer's recommendation. Real time PCR was performed on a StepOne device using Taqman Gene Expression Master Mix (Thermo Fisher), following manufacturer's recommendations. […]

[2] = system: LLC1 cells; experiment: Caspase 3/7 activity in LLC1 cells; assay type: cell-based, mouse
Experimental: (§1) FIG. 7. […] Caspase 3/-7 activity (n=3 independent experiments) (A) and the number of γH2AX nuclear foci (n=36-63 nuclei/group) (B) were determined. […] Results are expressed as the mean±SEM (n=3 independent experiments). (E) Tail moment was assessed by comet assay. A total of 50 cells per condition were analyzed. *** P<0.001; 1-way ANOVA followed by Tukey's post hoc test. […] (I) KW6002 increased yH2AX expression in tumors from mice of the LLC1 syngeneic model. Quantification of nuclear yH2AX expression.
Cells were cultured in DMEM/F12 medium (Dulbecco's modified Eagle's medium and Ham's F12 medium, Thermo Fisher) supplemented with 1% penicillin/streptomycin, 5 pmol/L triiodo-L-thyronine, 10 ng/ml recombinant human epidermal growth factor, 3.5 μg/mL ascorbic acid, 5.0 μg/mL human transferrin, 5.0 μg/mL insulin, 25 ng/mL prostaglandin E1, 25 ng/ml hydrocortisone, 8.65 ng/mL sodium selenite, 0.1 mg/mL G418 and 1.2 g/L sodium bicarbonate (Sigma). Lewis lung carcinoma mouse LLC1 cells were cultured in DMEM glutamax (Thermo Fisher) containing 10% fetal calf serum and 1% penicillin/streptomycin. Cells were cultured at 37° C. in a humidified atmosphere of 5% CO2.
Apoptosis was assessed in RPTEC/hTERT and LLC1 cell lysates using the caspase-Glo 3/7 assay (Promega) according to manufacturer's recommendations.

[3] = system: H1975 cells; experiment: Immunoblot quantification in H1975 cells; assay type: cell-based; conditions: 20 μM cisplatin, 10 nM KW6002, 24 hours
Experimental: as §1
Cells and tissues were homogenized using RIPA buffer (Sigma) supplemented with protease and phosphatase inhibitors (Pierce). 10 μg of total proteins were heated for 10 min at 70° C. and loaded on NuPAGE Novex gels (Thermo Fisher Scientific). After transfer of proteins to nitrocellulose membranes, membranes were blocked with 5% milk in TBS-tween followed by incubation with anti-cleaved caspase 3 (1/1000; #9661, Cell Signaling) or anti-cleaved PARP1 (1/1000; #5625, Cell Signaling) primary antibodies. Visualization of protein was achieved by using horseradish peroxidase-coupled secondary antibodies (1/2000; #7074, Cell signaling). Detection signal was performed by using the ECL select chemiluminescent kit (GE Healthcare) and Image Quant LAS 4000 (GE Healthcare). Data were analyzed with Image J. Membranes were probed with anti-GAPDH (glyceraldehyde-3-phosphate deshydrogenase) antibody as normalizer (G9545, Sigma).

CCn1c(=O)c2c(nc(/C=C/c3ccc(OC)c(OC)c3)n2C)n(CC)c1=O [KW-6002, 8-[(E)-2-(3,4-dimethoxyphenyl)vinyl]-1,3-diethyl-7-methyl-3,7-dihydro-1H-purine-2,6-dione]
histological lesions (histological score of renal injury) ([1]; SC model, FIG. 2H): less severe histological lesions | mRNA levels of Tnfα ([1]; SC model, FIG. 2K, figure not given): lower mRNA levels of Tnfα | mRNA levels of I16, change vs. cisplatin ([1]; SC model, kidney): −77.5±5.6% | reduction of KIM-1 expression vs. cisplatin ([1]; SC model, kidney mRNA): −79.5±3.8% | reduction of NGAL expression vs. cisplatin ([1]; SC model, kidney mRNA): −82.9±1.4% | reduction of BUN vs. cisplatin ([1]; SC model: cisplatin 3 mg/kg i.p. six days, KW-6002 3 mg/kg i.p. daily day-5 to day 7): −70.2±5.1% | cisplatin-induced increase in expression of Nrf2 ([1]; in vivo, subchronic model, FIG. 6D): normalized | cisplatin-induced increase in expression of HO1 ([1]; in vivo, subchronic model, FIG. 6E): normalized | effect on platinum accumulation in kidneys ([1]; independent experiment, animals of FIGS. 2G-2L): replicated | apoptosis: caspase 3/-7 activity ([2]; 2 μM cisplatin, 10 Nm KW6002, 24 hours, FIG. 7A): even potentiated the efficacy of cisplatin | LLC1 sensitivity to cisplatin, including apoptosis and/or DNA damage ([2]; in vitro, data not shown): likely increases LLC1 sensitivity to cisplatin | apoptosis: caspase 3 ([3]; FIG. 7C): did not impede the antitumoral effect of cisplatin | apoptosis: PARP ([3]; FIG. 7D): even potentiated the efficacy of cisplatin | cell cycle: cyclin D1 ([3]; FIG. 7G): did not impede the antitumoral effect of cisplatin | cell cycle: PCNA ([3]; FIG. 7H): even potentiated the efficacy of cisplatin
